Measurements: patent publication US6562859B1, “Ureido derivatives of poly-4-amino-2-carboxy-1-methyl pyrrole compounds for inhibition of inflammation” (The United States of America as represented by the …, priority 1997, dated 2003)
One block for each molecule: values may come before it.

How the values were obtained:
CXCR4 chemokine receptor = biological target: T1, CXCR4 chemokine receptor (Homo sapiens, UniProt P61073); test: Competition with 44716.111 mAb binding to CXCR4 on human monocytes (FACS); conditions: human monocytes pre-incubated 15 min at 4° C. with 125 nM SDF-1α or 200 μM NSC 651016
T1 construct: Human monocytes, which express the CXCR4 chemokine receptor; endogenous in cells; host or cells: human monocytes
Method: Competition assays were performed with the 44716.111 mouse monoclonal antibody (mAb), which binds to the extracellular domain of the CXCR4 chemokine receptor. Human monocytes, which express the CXCR4 chemokine receptor, were pre-incubated with either 125 nM of SDF-1α or 200 μM NSC 651016 for 15 min at 4° C. Control monocyte cells were placed at 4° C. for 15 min. The cells were then incubated with the 44716.111 mAb for an additional 30 min. The presence of the 44716.111 mAb was detected by incubating the cells with FITC-conjugated anti-murine antibody and subjecting the cells to FACS Analysis.

Murine spleen cells = test: Chemotaxis of non-adherent murine spleen cells in vitro; format: cell-based; conditions: 10 ng/ml RANTES alone; media alone = 1
Method: Murine spleen cells were “panned” on plastic to remove the adherent cells. The recovered cells were incubated for 30 minutes at 37° C. with one of the following: NSC 651015, NSC 651016, NSC 662162, and NSC 680651. […] In assays similarly performed using either the MIP-1α or the SDF-1α chemokine rather than RANTES, chemotactic inhibition was also observed in the presence of formula I compounds.

T1 sequence (P61073 whole entry): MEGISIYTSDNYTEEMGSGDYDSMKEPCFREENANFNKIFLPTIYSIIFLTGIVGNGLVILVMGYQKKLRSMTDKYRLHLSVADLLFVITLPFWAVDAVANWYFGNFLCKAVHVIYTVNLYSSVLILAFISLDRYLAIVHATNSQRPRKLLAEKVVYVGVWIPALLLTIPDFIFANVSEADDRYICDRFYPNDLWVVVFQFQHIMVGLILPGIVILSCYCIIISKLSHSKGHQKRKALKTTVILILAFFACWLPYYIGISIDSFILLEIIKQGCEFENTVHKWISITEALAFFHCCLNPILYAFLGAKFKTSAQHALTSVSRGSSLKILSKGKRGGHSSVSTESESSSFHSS

44716.111 antibody binding to the CXCR4 receptor (CXCR4 chemokine receptor): decrease in 44716.111 antibody binding
Molecule: SDF-1α

B1: RANTES: β-chemokine used as chemoattractant stimulus (protein, UniProt P13501 24-91, looked up)
C-C motif chemokine 5: SPYSSDTTPCCFAYIARPLPRAHIKEYFYTSGKCSNPAVVFVTRKNRQVCANPEKKWVREYINSLEMS
chemotactic index (Murine spleen cells): 2.3
